Results: ChEMBL document CHEMBL1201862, “PubChem BioAssay data set” (2004)
Calls of active or inactive are those of the source.

How the values were obtained:
Kallikrein-7 = Kallikrein-7 (Homo sapiens, UniProt P49862); assay: Fluorescence Intensity-based biochemical primary high throughput dose response assay to identify activators of kallikrein-7 (K7) zymogen.
Fatty acid synthase [1] = target: T1, Fatty acid synthase (Homo sapiens, UniProt P49327); assay: inhibition of human FAS-TE enzyme activity – biochemical, endpoint fluorescence intensity, uHTS hits, dose response (AID 624327); format: functional;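 further: fluorescence from hydrolysis of an O-methyl fluorescein acyl ester substrate by the enzyme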
T1 sequence (P49327 whole entry): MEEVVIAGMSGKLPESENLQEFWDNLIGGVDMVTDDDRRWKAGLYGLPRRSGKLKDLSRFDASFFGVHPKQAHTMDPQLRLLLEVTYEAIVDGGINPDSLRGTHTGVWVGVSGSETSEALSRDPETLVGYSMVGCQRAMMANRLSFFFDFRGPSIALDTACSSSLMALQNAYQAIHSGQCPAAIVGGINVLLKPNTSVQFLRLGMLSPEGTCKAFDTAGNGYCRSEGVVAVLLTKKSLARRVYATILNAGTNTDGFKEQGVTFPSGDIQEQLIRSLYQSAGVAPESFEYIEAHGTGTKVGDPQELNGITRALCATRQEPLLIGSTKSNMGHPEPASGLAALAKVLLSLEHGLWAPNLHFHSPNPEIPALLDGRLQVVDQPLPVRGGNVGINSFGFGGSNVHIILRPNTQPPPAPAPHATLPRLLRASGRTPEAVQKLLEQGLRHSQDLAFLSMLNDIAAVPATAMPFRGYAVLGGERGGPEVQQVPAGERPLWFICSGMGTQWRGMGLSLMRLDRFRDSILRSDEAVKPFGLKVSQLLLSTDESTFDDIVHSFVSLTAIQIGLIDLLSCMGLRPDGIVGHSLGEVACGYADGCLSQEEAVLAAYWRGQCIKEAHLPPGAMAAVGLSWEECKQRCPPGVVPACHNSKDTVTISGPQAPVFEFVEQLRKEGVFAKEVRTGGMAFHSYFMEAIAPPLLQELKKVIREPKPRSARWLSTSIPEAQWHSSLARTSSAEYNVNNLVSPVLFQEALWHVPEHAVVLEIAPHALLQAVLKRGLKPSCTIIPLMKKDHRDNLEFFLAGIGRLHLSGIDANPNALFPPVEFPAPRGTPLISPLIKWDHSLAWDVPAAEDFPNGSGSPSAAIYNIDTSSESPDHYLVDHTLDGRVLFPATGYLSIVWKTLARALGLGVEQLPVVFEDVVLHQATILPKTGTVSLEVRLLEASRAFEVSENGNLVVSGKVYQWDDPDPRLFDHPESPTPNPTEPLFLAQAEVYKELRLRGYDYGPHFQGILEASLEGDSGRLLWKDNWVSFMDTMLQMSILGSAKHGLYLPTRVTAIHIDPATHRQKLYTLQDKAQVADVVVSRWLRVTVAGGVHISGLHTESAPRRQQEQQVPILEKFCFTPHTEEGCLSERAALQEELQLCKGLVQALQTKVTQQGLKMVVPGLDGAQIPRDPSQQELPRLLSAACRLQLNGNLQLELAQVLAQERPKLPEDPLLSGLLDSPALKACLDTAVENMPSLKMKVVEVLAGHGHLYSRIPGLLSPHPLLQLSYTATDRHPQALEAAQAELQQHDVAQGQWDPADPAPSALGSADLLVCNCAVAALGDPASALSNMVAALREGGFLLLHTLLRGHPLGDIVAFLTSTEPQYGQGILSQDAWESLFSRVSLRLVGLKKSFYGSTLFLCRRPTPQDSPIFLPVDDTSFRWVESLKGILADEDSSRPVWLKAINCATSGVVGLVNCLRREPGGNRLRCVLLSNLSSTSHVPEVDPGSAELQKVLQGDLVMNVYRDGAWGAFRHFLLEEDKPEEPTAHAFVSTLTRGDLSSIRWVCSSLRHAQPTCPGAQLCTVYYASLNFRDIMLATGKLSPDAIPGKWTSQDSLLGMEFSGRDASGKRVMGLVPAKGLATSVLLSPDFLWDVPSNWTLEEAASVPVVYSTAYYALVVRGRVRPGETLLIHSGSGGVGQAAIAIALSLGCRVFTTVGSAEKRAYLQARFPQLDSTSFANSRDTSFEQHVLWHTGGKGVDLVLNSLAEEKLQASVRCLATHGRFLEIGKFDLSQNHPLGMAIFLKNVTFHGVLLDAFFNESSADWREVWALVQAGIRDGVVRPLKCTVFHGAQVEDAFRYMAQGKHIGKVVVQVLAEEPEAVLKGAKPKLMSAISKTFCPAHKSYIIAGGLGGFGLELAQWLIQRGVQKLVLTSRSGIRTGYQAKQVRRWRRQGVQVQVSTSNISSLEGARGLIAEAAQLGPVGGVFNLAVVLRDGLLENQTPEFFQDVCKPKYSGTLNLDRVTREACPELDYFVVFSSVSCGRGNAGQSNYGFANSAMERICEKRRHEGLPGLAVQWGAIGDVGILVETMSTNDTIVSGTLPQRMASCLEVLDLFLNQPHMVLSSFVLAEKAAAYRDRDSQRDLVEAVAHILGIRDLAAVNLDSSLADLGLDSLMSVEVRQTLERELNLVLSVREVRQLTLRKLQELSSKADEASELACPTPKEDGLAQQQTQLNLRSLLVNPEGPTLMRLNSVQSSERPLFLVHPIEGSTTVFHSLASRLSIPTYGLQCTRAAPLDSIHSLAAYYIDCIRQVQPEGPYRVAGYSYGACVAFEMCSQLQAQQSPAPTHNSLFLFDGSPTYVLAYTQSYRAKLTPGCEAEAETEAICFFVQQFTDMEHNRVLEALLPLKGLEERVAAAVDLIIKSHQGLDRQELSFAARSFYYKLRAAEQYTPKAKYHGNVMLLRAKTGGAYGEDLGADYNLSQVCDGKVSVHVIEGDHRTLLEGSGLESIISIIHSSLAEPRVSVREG

Fatty acid synthase [2] = target: T1, Fatty acid synthase; assay: inhibition of human FAS-TE enzyme activity – biochemical, kinetic fluorescence intensity, dose response (AID 624326); format: functional;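 further: rate of fluorescence rise from hydrolysis of a fluorogenic O-methyl fluorescein ester substrate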
fMet-Leu-Phe receptor = target: T2, fMet-Leu-Phe receptor (Homo sapiens, UniProt P21462); assay: formyl peptide receptor binders – dose response (AID 519); format: functional
T2 sequence (P21462 whole entry): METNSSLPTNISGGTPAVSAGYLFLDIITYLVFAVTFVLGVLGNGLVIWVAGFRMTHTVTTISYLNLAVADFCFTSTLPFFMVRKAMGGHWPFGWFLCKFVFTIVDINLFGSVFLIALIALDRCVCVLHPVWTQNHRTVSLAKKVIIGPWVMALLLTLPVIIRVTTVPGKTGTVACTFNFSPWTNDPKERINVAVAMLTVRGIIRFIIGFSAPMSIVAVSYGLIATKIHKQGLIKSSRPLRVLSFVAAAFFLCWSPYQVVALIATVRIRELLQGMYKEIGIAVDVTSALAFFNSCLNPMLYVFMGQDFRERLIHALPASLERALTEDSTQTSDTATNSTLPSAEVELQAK

Orexin receptor type 2 [3] = target: T3, Orexin receptor type 2 (Homo sapiens, UniProt O43614); assay: Counterscreen assay for antagonists of the orexin 1 receptor (OX1R; HCRTR1): Homogeneous Time Resolved Fluorescence (HTRF)-based cell-based dose response assay for antagonists of the orexin 2 receptor (OX2R; HCRTR2), run by assay provider.; format: functional
T3 sequence (O43614 whole entry): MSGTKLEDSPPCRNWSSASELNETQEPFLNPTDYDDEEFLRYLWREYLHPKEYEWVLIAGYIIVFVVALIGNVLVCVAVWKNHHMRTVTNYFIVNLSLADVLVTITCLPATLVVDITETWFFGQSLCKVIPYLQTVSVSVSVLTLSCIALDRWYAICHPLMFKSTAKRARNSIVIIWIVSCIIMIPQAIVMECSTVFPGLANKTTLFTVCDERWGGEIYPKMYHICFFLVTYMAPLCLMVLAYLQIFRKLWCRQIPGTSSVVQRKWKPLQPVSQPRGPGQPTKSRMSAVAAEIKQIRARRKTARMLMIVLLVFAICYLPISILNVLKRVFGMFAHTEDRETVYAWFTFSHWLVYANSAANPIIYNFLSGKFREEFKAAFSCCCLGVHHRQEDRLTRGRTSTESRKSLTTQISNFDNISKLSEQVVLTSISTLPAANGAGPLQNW

CHO-K1 = assay: (§1) Counterscreen for antagonists of the orexin 1 receptor (OX1R; HCRTR1): Homogeneous time resolved fluorescence (HTRF)-based cell-based dose response assay to identify antagonists of the parental CHO-K1 cell line. [Related pubchem assays (depositor defined):AID434989, AID435008, AID463079, AID485270, AID492963, AID492964, AID492965, AID493232, AID504699, AID504701]; format: functional; settings: Cricetulus griseus
[4] = target: T4, Orexin/Hypocretin receptor type 1 (Homo sapiens, UniProt O43613); assay: Homogeneous Time Resolved Fluorescence (HTRF)-based cell-based high throughput dose response assay for antagonists of the orexin 1 receptor (OX1R; HCRTR1). [Related pubchem assays (depositor defined):AID434989, AID435008, AID463079, AID485270, AID492963, AID492964, AID492965, AID493232, AID504717, AID504718]; format: functional
T4 sequence (O43613 whole entry): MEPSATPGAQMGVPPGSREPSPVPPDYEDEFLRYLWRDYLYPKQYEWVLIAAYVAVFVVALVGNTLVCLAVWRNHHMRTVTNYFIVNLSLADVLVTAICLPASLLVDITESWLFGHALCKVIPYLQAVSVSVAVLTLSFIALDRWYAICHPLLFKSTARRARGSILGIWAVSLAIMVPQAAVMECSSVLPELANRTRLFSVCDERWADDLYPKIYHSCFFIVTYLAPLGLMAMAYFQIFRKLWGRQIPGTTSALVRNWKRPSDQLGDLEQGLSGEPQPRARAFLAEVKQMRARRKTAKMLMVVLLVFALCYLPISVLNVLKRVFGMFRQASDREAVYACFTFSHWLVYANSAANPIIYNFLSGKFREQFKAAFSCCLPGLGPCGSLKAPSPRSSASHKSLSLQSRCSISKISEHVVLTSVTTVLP

Orexin receptor type 2 [5] = target: T3, Orexin receptor type 2; assay: Counterscreen assay for antagonists of the orexin 1 receptor (OX1R; HCRTR1): Fluorescence-based cell-based dose response assay for antagonists of the orexin 2 receptor (OX2R; HCRTR2), run by assay provider.; format: functional
[6] = target: T4, Orexin/Hypocretin receptor type 1; assay: Fluorescence-based cell-based high throughput dose response assay for antagonists of the orexin 1 receptor (OX1R; HCRTR1). [Related pubchem assays (depositor defined):AID434989, AID435008, AID463079, AID485270, AID492963, AID492964, AID492965, AID493232, AID504717, AID504718]; format: functional
[7] = as §1, with “Fluorescence-based” for “Homogeneous time resolved fluorescence (HTRF)-based”, “cell-based high throughput” for “cell-based”, “CHO” for “CHO-K1”; format: functional
[8] = growth inhibition of yeast DHODH-expressing 3D7 parasites – SYBR Green, dry powder samples, dose response (AID 1159570); format: functional, cell-based;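 further: parasite growth measured after 72 hours of compound exposure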
[9] = Dd2 malaria parasite growth inhibition potency – SYBR Green, dry powder samples, dose response (AID 1159566); format: functional, cell-based;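 further: potency for growth inhibition with lower SYBR green DNA signal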
[10] = growth inhibition of PfATP4-mutant resistant parasites – NITD609-resistant line, SYBR Green, dry powder, dose response (AID 1159571); format: functional, cell-based;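 further: parasites synchronized at ring stage by sorbitol before testing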
[11] = P. falciparum Dd2 growth inhibitors, dose response, SYBR Green, cherry-picked samples (AID 1159567); format: functional, cell-based
[12] = target: T5, Tyrosyl-DNA phosphodiesterase 2 (Homo sapiens, UniProt O95551); assay: potency against TDP2 phosphodiesterase activity – biochemical, epi absorbance, IC50, dose response (AID 743297)
T5 sequence (O95551 whole entry): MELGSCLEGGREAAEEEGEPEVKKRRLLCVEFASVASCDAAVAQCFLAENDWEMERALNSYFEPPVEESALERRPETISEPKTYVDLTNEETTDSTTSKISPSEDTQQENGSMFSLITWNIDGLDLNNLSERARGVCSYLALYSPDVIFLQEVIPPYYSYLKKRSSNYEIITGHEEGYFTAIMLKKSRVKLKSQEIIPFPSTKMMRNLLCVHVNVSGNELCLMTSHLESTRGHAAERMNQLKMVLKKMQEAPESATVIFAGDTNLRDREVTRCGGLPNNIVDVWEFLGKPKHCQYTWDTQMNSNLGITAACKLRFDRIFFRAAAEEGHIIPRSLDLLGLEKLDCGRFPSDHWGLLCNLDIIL

[13] = target: T6, Histone-lysine N-methyltransferase NSD2 (Homo sapiens, UniProt O96028); format: biochemical
T6 sequence (O96028 whole entry): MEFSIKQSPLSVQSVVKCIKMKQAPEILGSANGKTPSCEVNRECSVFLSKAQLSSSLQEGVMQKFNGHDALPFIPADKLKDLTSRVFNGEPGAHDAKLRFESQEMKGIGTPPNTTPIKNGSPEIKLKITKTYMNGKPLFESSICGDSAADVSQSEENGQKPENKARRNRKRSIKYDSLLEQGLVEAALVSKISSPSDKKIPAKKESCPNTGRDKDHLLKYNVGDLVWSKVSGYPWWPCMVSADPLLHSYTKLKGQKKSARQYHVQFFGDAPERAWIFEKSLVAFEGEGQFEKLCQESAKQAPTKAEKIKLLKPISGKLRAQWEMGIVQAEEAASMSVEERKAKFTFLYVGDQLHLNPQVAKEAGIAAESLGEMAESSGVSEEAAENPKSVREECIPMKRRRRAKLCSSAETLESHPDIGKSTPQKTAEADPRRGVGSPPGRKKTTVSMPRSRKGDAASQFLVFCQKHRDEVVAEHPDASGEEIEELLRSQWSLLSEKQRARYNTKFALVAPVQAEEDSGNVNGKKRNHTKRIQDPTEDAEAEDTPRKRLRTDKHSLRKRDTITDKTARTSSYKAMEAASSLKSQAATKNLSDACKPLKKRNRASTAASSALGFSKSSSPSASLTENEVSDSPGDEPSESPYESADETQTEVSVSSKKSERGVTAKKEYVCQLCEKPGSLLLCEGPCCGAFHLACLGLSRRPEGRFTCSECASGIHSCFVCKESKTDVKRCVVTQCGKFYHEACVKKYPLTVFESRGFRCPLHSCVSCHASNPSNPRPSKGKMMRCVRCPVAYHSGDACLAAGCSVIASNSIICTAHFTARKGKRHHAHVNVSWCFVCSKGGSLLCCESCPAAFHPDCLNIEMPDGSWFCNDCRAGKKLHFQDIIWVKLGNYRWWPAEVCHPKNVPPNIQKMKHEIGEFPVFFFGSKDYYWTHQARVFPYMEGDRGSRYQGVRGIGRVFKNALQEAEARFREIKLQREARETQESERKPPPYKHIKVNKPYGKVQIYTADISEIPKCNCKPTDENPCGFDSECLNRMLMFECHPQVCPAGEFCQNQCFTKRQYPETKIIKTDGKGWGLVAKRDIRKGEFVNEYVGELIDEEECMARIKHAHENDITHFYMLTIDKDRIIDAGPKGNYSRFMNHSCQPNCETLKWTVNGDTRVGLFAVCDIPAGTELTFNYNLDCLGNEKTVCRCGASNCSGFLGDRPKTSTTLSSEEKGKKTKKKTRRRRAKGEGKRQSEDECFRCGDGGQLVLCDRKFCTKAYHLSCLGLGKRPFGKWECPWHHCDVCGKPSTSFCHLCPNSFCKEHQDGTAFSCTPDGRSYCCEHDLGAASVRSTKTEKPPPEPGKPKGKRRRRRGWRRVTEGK

[14] = target: Dual specificity tyrosine-phosphorylation-regulated kinase 1A (Rattus norvegicus, UniProt Q63470); format: biochemical, Homo sapiens
Paired box protein Pax-8 = Paired box protein Pax-8 (Homo sapiens, UniProt Q06710); assay: PAX8 transcriptional activity inhibition in RMG-I – RMG-I cells, luciferase, cherry-pick, dose response (AID 687027); format: functional, cell-based;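 further: luciferase reporter driven by Pax8 target thyroperoxidase promoter measured by SteadyGlo luminescence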
Paired box protein Pax-8, sequence (Q06710 whole entry): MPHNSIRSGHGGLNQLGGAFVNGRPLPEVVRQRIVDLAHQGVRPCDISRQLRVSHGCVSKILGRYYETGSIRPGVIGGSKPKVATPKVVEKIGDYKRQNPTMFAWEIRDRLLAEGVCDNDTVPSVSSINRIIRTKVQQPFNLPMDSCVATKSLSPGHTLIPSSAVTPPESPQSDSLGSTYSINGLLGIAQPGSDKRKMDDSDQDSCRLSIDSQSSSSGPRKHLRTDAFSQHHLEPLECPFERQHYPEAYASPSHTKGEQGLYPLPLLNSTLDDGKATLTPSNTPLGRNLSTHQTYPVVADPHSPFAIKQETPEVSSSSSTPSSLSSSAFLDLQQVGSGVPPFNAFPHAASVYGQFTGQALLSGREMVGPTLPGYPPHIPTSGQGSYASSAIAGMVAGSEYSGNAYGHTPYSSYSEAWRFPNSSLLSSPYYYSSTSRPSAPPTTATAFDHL

[15] = target: Heat shock protein HSP 90-alpha (Homo sapiens, UniProt P07900); format: functional, organism-based
[16] = viability of uninfected HEp-2 cells – cell-based, HTS, cytotoxicity control for RSV inhibitor project, dose response (AID 2410); format: functional; settings: human respiratory syncytial virus

Kallikrein-7, sequence (P49862 whole entry): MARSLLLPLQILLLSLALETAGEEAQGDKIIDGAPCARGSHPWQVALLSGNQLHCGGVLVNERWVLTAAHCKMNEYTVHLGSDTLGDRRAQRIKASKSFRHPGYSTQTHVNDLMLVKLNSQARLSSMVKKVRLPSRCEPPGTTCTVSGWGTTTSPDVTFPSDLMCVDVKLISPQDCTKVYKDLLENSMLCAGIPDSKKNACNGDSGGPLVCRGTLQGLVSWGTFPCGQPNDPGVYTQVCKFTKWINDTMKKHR

## CCOC(=O)c1cc2c(=O)n3ccccc3nc2n(CC2CCCO2)/c1=N/C(=O)/C=C/c1ccccc1 (stereo unspecified)
Kallikrein-7
  EC50: > 69.5 µM (inactive)
Fatty acid synthase [1]
  IC50: 2.71 µM (active)
Fatty acid synthase [2]
  IC50: 3.99 µM (active)

## CCOC(=O)CSc1nnc(CNC(=O)c2cc(OCC)c(OCC)c(OCC)c2)n1C
fMet-Leu-Phe receptor
  Ki: > 66.7 µM (inactive)

## O=c1cc(CN2CC(O)Cc3ccc4ccccc4c32)nc2sccn12 (stereo unspecified)
Orexin receptor type 2 [3]
  IC50: > 50 µM (inactive)
CHO-K1
  IC50: > 66.2 µM (inactive)
[4]
  IC50: 4.12 µM (active)
Orexin receptor type 2 [5]
  IC50: > 88.8 µM (inactive)
[6]
  IC50: 3.29 µM (active)
[7]
  IC50: > 49.7 µM (inactive)

## COc1ccc(C#Cc2ccc3c(c2)O[C@H](CN(C)S(=O)(=O)c2ccccc2F)[C@@H](C)CN([C@H](C)CO)S3(=O)=O)cc1
[8]
  AC50: 1.38 µM (active)
[9]
  AC50: 1.12 µM (active)
[10]
  AC50: 1.21 µM (active)
[11]
  AC50: 1.7 µM (active)

## Cc1ccc2c(c1C)-c1c(ccc(C)c1C)C(=O)C2=O
Fatty acid synthase [1]
  IC50: 7.89 µM (active)
[12]
  IC50: 8.67 µM (active)
[13]
  AC50: 0.531 µM (active)
[14]
  AC50: 3.16 µM (active)
Paired box protein Pax-8
  AC50: 3.67 µM (active)
[15]
  AC50: 2.79 µM (active)
Fatty acid synthase [2]
  IC50: 5.23 µM (active)

## CC1Cc2cc(C(=O)C3=C(O)C(=O)N(CCN4CCOCC4)C3c3ccccc3F)ccc2O1 (stereo unspecified)
fMet-Leu-Phe receptor
  Ki: > 66.7 µM (inactive)

## CN(Cc1ccccc1)C(=O)c1[nH]cnc1C(=O)N[C@@H](Cc1ccccc1)C(=O)OC(C)(C)C
Orexin receptor type 2 [3]
  IC50: > 50 µM (inactive)
CHO-K1
  IC50: > 66.2 µM (inactive)
[4]
  IC50: 0.515 µM (active)
Orexin receptor type 2 [5]
  IC50: > 88.8 µM (inactive)
[6]
  IC50: 5.87 µM (active)
[7]
  IC50: > 49.8 µM (inactive)

## O=C(/C=C/c1cccc([N+](=O)[O-])c1)NCCSCc1cccc(Cl)c1
[16]
  CC50: 14.3 µM (active)
Fatty acid synthase [1]
  IC50: 11.7 µM (active)
Fatty acid synthase [2]
  IC50: 7.25 µM (active)
